Source: patent US20080051378A1, “Combinations Comprising Antimuscarinic Agents and Corticosteroids” (priority 2004, published 2008)

System: ovoalbumin-sensitized guinea-pig isolated tracheal rings
Assay: Inhibition of the antigen (ovoalbumin)-induced contraction in ovoalbumin-sensitized guinea-pig isolated tracheal rings
Conditions: for CONTRACTILE RESPONSE TO OVOALBUMIN (in mg) (mean ± sem): vehicle 886 ± 108 mg
Experimental: Male Dunkin-Hartley guinea-pigs (weighing 380-420 g) from Harlan Ibérica (St. Feliu de Codines, Spain) are used. They are housed, with free access to food and water, in rooms kept at 22±2° C. under a 12 hours light-dark cycle until the start of the experiment.
The animals are sensitised by means of two sessions of aerosolization with a solution of 5 mg/ml of ovoalbumin on days zero and 7 of the study. The aerosolization procedure consists of two 30-s nebulisations (Efbe air brush apparatus) with an interval of 5 minutes with animals maintained in a plexiglass box for 10 minutes since the beginning of the procedure.
Between days 14 to 20 from the beginning of the experiment the animals are euthanised and the tracheal tissue is removed. A single tracheal ring is excised and suspended in an organ bath containing Krebs solution. Once attached to a force isometric transducer, it is submitted to a basal resting tension of 1 g, equilibrated with a mixture a 5% CO2 in O2 and maintained at 37° C.
The preparations are allowed to equilibrate for a period of not less than 60 minutes and then the vehicle or the compound(s) to be tested are added to the bath. The corticosteroids (if present) are added first, and, after an incubation period of 45 minutes, the M3 antagonist are subsequently added allowing the system to stand for another 15 minutes. At this moment ovoalbumin is added (at a final concentration in the bath of 10 μg/ml) to elicit the contractile response which is measured immediately.
The contractile responses measured with a force isometric transducer are expressed in mg.

[1] = each compound 10 μM in organ bath, corticosteroid added 45 min before, M3 antagonist 15 min before ovoalbumin 10 μg/ml

| SMILES | inhibition at 10 µM (Cavia porcellus, each compound 10 μM in organ bath, corticosteroid added 45 min before, M3 antagonist 15 min before ovoalbumin 10 μg/ml, versus vehicle, read-out: % INHIBITION OF THE CONTRACTILE RESPONSE) | CONTRACTILE RESPONSE TO OVOALBUMIN (in mg) (mean ± sem) [1] | % INHIBITION OF THE CONTRACTILE RESPONSE (each compound 10 μM in organ bath, corticosteroid added 45 min before, M3 antagonist 15 min before ovoalbumin 10 μg/ml, versus vehicle) | inhibition of the contractile response, comparison in words (text summary of Table 1 and FIG. 1, 10 μM each) |
| --- | --- | --- | --- | --- |
| CCCC1O[C@@H]2C[C@H]3[C@@H]4CCC5=CC(=O)C=C[C@]5(C)[C@H]4[C@@H](O)C[C@]3(C)[C@]2(C(=O)CO)O1 (some centres unmarked) [BUDESONIDE, budesonide] | 51% | 435 ± 68 mg | – | – |
| C[C@H]1C[C@H]2[C@@H]3CCC4=CC(=O)C=C[C@]4(C)[C@@]3(Cl)[C@@H](O)C[C@]2(C)[C@@]1(O)C(=O)CO [BECLOMETHASONE, beclomethasone] | – | 778 ± 83 mg | 12% | smaller effect |
